Among the data in PubChem BioAssay (NCI) are TGI and GI50 values, retold here.

“And” between values parts separate entries of the source, which are not always exact repeats. Equal values may be shown once.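 These data come from cells grown in 96-well plates and exposed to compound for 48 hours at five concentrations. GI50: concentration for 50% inhibition of growth. TGI: total growth inhibition.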 A value given as a limit tells only on which side of the number the result lay.

Among the test systems are MOLT-4 leukemia; HCT-15 colon; BT-549 breast; HOP-92 NSCLC; 786-0 renal; MDA-N; MDA-MB-231 breast; K-562 leukemia; SF-295 CNS; DU-145 prostate; MCF7 breast.
Common to all, as to experiment: NCI tumour cell line growth inhibition, 48 h

For `O=c1[nH]c(Br)nc2n[nH]nc12`, the TGI in the test on MOLT-4 leukemia was 44.3 µM; in the test on HCT-15 colon, over 100 µM; in the test with BT-549 breast, over 100 µM; with HOP-92 NSCLC it was over 100 µM; in the test on 786-0 renal it was over 100 µM; in the test on MDA-N, over 100 µM. The TGI in the test with MDA-MB-231 breast, in the test on K-562 leukemia, with SF-295 CNS, in the test on DU-145 prostate and in the test with MCF7 breast was over 100 µM throughout.

Turning to `c1cc2cc(Cc3ccc4[nH]ccc4c3)ccc2[nH]1`, the TGI came out at 41 µM in the test with MOLT-4 leukemia; 28 µM in the test on HCT-15 colon; 45.8 µM in the test on BT-549 breast; 34.9 µM with HOP-92 NSCLC; 33.6 µM in the test with 786-0 renal; 26.5 µM with MDA-N. Moreover, the TGI in the test on MDA-MB-231 breast was 33.8 µM; in the test on K-562 leukemia, over 100 µM; in the test on SF-295 CNS, 78.9 µM; in the test with DU-145 prostate, 56.2 µM; in the test with MCF7 breast, 32.3 µM.

Consider `CCOC(=O)c1cc(C2CCN(Cc3ccccc3)C2=O)c(C(=O)/C=C(/C)N)[nH]1` (stereo not drawn), for which the TGI in the test with MOLT-4 leukemia was over 100 µM; in the test on HCT-15 colon, over 100 µM; in the test on BT-549 breast, over 100 µM; with HOP-92 NSCLC, 97.5 µM; with 786-0 renal, over 100 µM; with MDA-N, over 100 µM. Moreover, the TGI with MDA-MB-231 breast, in the test on K-562 leukemia, with SF-295 CNS, in the test on DU-145 prostate and in the test with MCF7 breast was over 100 µM throughout.

Turning to `O=C(/C=C/c1ccc(O)c(O)c1)c1ccc(O)cc1O`, the TGI is 55.9 µM with MOLT-4 leukemia; 44.3 µM in the test with HCT-15 colon; 14.6 µM in the test on BT-549 breast; 33.3 µM in the test with HOP-92 NSCLC; 25.5 µM in the test on 786-0 renal; 19.8 µM with MDA-N. Moreover, the TGI in the test on MDA-MB-231 breast turned out to be 50.8 µM; in the test with K-562 leukemia, 25.4 µM; in the test with SF-295 CNS it was 50.3 µM; with DU-145 prostate it was 18.9 µM; in the test on MCF7 breast, 15.7 µM.

Take `COc1cccc(C2c3cc4c(cc3OC(NNC(N)=O)C2C)OCO4)c1OC` (stereo not drawn): the TGI in the test with MOLT-4 leukemia is 66.8 µM; in the test with HCT-15 colon it was 77.7 µM; in the test on BT-549 breast it was over 100 µM; in the test on HOP-92 NSCLC it was 57.8 µM; in the test on 786-0 renal, 16.5 µM; in the test on MDA-N, 82.7 µM. Besides, the TGI in the test on MDA-MB-231 breast is 81.6 µM; with K-562 leukemia it was 88 µM; in the test on SF-295 CNS, 43.3 µM; in the test on DU-145 prostate, 83.1 µM; in the test with MCF7 breast, over 100 µM.

As to `NCCNc1ccc(NCCN)c2c1C(=O)c1c(O)ccc(O)c1C2=O`, the TGI in the test on MOLT-4 leukemia is 0.216 µM; with HCT-15 colon, 0.391 µM and 1.26 µM; in the test with BT-549 breast, 2.18 µM; with HOP-92 NSCLC, 0.0789 µM; with 786-0 renal it was 0.0555 µM and 0.0497 µM; with MDA-N it was 2.33 µM and 1.43 µM. Moreover, the TGI is 2.14 µM and 0.621 µM with MDA-MB-231 breast; 0.14 µM in the test on K-562 leukemia; 0.414 µM and 0.0618 µM with SF-295 CNS; 0.398 µM and 2.56 µM with DU-145 prostate; 4.51 µM and 1.27 µM in the test on MCF7 breast. Moreover, the GI50 is 0.0303 µM in the test with HCT-15 colon; 0.229 µM in the test on HOP-92 NSCLC; 0.26 µM in the test with MDA-N; 0.146 µM with MDA-MB-231 breast; under 0.0131 µM with SF-295 CNS; 0.0301 µM in the test on DU-145 prostate.

For the compound `Cc1ccc(/C=C2\CCS(=O)(=O)c3ccccc3C2=O)cc1`, the TGI in the test on MOLT-4 leukemia stood at 43.6 µM; in the test with HCT-15 colon it was 27.7 µM; in the test with BT-549 breast, 34 µM; in the test on HOP-92 NSCLC it was 31 µM; with 786-0 renal, 34 µM; with MDA-N, 77.2 µM. Besides, the TGI is 34.6 µM in the test with MDA-MB-231 breast; over 100 µM in the test with K-562 leukemia; 40.5 µM with SF-295 CNS; 27.7 µM in the test on DU-145 prostate; 34.8 µM with MCF7 breast.

Regarding `COC(=O)CCc1cc(OC)c2oc(-c3ccc(OC)c(OC)c3)c(CO)c2c1`, the TGI in the test with MOLT-4 leukemia, in the test on HCT-15 colon, in the test on BT-549 breast, in the test on HOP-92 NSCLC, in the test on 786-0 renal and with MDA-N was over 100 µM each time. The TGI in the test on MDA-MB-231 breast, in the test on K-562 leukemia, in the test with SF-295 CNS, with DU-145 prostate and in the test with MCF7 breast was over 100 µM in each case.

As to `O=C(N/N=C\c1ccc(Cl)cc1)Nc1cccc2ccccc12`, the TGI is over 43.7 µM in the test on MOLT-4 leukemia; over 31.6 µM in the test with HCT-15 colon; over 100 µM with BT-549 breast; 21.2 µM in the test on HOP-92 NSCLC; 3.9 µM in the test with 786-0 renal; over 21.3 µM in the test with MDA-N. Besides, the TGI in the test with MDA-MB-231 breast is over 59.1 µM; in the test with K-562 leukemia it was over 100 µM; in the test on SF-295 CNS, 6.2 µM; with DU-145 prostate, over 100 µM; in the test with MCF7 breast it was 22.3 µM.

In the case of `CCOC(=O)C12CCC(c3c(C)cccc3C)(O1)C(C(=O)OC)=C2C(=O)OC` (stereo not drawn), the TGI is over 10 µM with MOLT-4 leukemia; over 10 µM in the test with HCT-15 colon; over 10 µM with BT-549 breast; over 10 µM in the test with HOP-92 NSCLC; over 10 µM in the test with 786-0 renal; 1.98 µM in the test with MDA-N. Besides, the TGI with MDA-MB-231 breast was 9.93 µM; with K-562 leukemia, over 10 µM; in the test with SF-295 CNS, over 10 µM; in the test with DU-145 prostate it was over 10 µM; in the test on MCF7 breast it was over 10 µM.

As to `CC1=C(N2CC2)C(=O)C(C)=C(N2CC2)C1=O`, the TGI was 13.5 µM with MOLT-4 leukemia; 3.31 µM with HCT-15 colon; 5.14 µM in the test with BT-549 breast; 0.988 µM in the test on HOP-92 NSCLC; 0.622 µM with 786-0 renal; 2.9 µM with MDA-N. In addition, the TGI in the test with MDA-MB-231 breast was over 100 µM; in the test on K-562 leukemia, 3.92 µM; with SF-295 CNS, 1.47 µM; in the test on DU-145 prostate, 4.69 µM; in the test with MCF7 breast it was 1.46 µM.

Consider `Clc1ccc2c(c1)CC1C[N+]3=C(CCCCC3)C1=C2` (stereo not drawn), for which the TGI with MOLT-4 leukemia was over 100 µM; in the test with HCT-15 colon, over 100 µM; with BT-549 breast, over 100 µM; with HOP-92 NSCLC it was 95.2 µM; in the test on 786-0 renal it was over 100 µM; in the test with MDA-N, over 100 µM. Moreover, the TGI in the test on MDA-MB-231 breast, with K-562 leukemia, with SF-295 CNS, in the test on DU-145 prostate and in the test on MCF7 breast was over 100 µM in each case.
